Experimental data reported in the NIST ThermoML archive (doi:10.1016/j.jct.2015.07.005).
“And” between values parts separate entries of the source, which are not always exact repeats. Equal values may be shown once.

Settings: Gas, Frequency=0.005 MHz, Spherical cavity resonance method

C [methane]
Settings | speed of sound
280.01 K, 500.03 kPa | 434.02 m/s and 434.03 m/s
280.01 K, 500.04 kPa | 434.03 m/s
280.01 K, 500.18 kPa | 434.03 m/s
280.02 K, 500.03 kPa | 434.03 m/s and 434.03 m/s
280.02 K, 500.04 kPa | 434.03 m/s and 434.02 m/s and 434.03 m/s
280.02 K, 500.18 kPa | 434.03 m/s
280.02 K, 500.19 kPa | 434.03 m/s and 434.03 m/s and 434.03 m/s
293.27 K, 394.31 kPa | 443.98 m/s and 443.97 m/s and 443.97 m/s
293.27 K, 394.32 kPa | 443.97 m/s and 443.97 m/s and 443.97 m/s
293.28 K, 394.32 kPa | 443.97 m/s [middle of 6 runs]
293.28 K, 394.33 kPa | 443.98 m/s and 443.98 m/s and 443.97 m/s
293.28 K, 394.34 kPa | 443.98 m/s
293.28 K, 394.35 kPa | 443.98 m/s and 443.98 m/s
293.29 K, 394.36 kPa | 443.98 m/s and 443.97 m/s
319.52 K, 429.9 kPa | 462.06 m/s
319.53 K, 429.91 kPa | 462.06 m/s
319.55 K, 428.61 kPa | 461.97 m/s and 461.97 m/s
319.87 K, 471.86 kPa | 462.12 m/s
319.87 K, 471.87 kPa | 462.12 m/s
319.88 K, 471.88 kPa | 462.12 m/s
319.88 K, 471.91 kPa | 462.13 m/s
319.89 K, 471.91 kPa | 462.13 m/s and 462.13 m/s
319.89 K, 471.92 kPa | 462.13 m/s
319.89 K, 471.93 kPa | 462.12 m/s and 462.13 m/s
319.94 K, 430.41 kPa | 462.32 m/s
319.94 K, 430.42 kPa | 462.32 m/s
319.95 K, 429.13 kPa | 462.24 m/s
319.96 K, 429.13 kPa | 462.24 m/s
339.35 K, 456 kPa | 474.76 m/s and 474.76 m/s
339.88 K, 456.67 kPa | 475.08 m/s
339.89 K, 456.67 kPa | 475.08 m/s
359.27 K, 481.98 kPa | 486.94 m/s
359.28 K, 480.58 kPa | 486.84 m/s
359.28 K, 481.81 kPa | 486.76 m/s
359.28 K, 481.99 kPa | 486.94 m/s
359.29 K, 480.58 kPa | 486.85 m/s
359.85 K, 482.79 kPa | 487.31 m/s
359.86 K, 482.59 kPa | 487.15 m/s
359.86 K, 482.79 kPa | 487.31 m/s
359.87 K, 482.6 kPa | 487.15 m/s
360.03 K, 529.63 kPa | 487.35 m/s
360.03 K, 529.64 kPa | 487.35 m/s and 487.35 m/s
360.03 K, 529.66 kPa | 487.35 m/s
360.04 K, 529.66 kPa | 487.34 m/s and 487.34 m/s
360.04 K, 529.67 kPa | 487.33 m/s and 487.33 m/s
379.2 K, 507.87 kPa | 498.66 m/s and 498.66 m/s
379.78 K, 508.56 kPa | 498.97 m/s and 498.98 m/s
399.24 K, 533.63 kPa | 510.01 m/s and 510.02 m/s
399.82 K, 534.48 kPa | 510.39 m/s and 510.39 m/s
399.99 K, 471.94 kPa | 510.49 m/s and 510.5 m/s and 510.49 m/s
399.99 K, 471.95 kPa | 510.47 m/s and 510.48 m/s
399.99 K, 471.96 kPa | 510.47 m/s
399.99 K, 471.97 kPa | 510.47 m/s
399.99 K, 471.98 kPa | 510.47 m/s
400 K, 471.96 kPa | 510.46 m/s
419.54 K, 559.42 kPa | 521.02 m/s
419.55 K, 559.43 kPa | 521.03 m/s
419.56 K, 559.63 kPa | 521.2 m/s and 521.2 m/s
419.99 K, 560 kPa | 521.28 m/s
420 K, 560.01 kPa | 521.28 m/s and 521.29 m/s
420.02 K, 560.19 kPa | 521.47 m/s
420.02 K, 560.2 kPa | 521.46 m/s
439.94 K, 496.85 kPa | 532.03 m/s
439.94 K, 496.86 kPa | 532.02 m/s and 532.03 m/s
439.94 K, 496.87 kPa | 532.02 m/s
439.94 K, 496.88 kPa | 532.01 m/s [middle of 5 runs]
449.69 K, 597.89 kPa | 537.24 m/s
449.69 K, 597.9 kPa | 537.24 m/s [middle of 6 runs]
449.7 K, 597.88 kPa | 537.22 m/s
449.7 K, 597.89 kPa | 537.22 m/s and 537.23 m/s
449.7 K, 597.9 kPa | 537.23 m/s and 537.24 m/s and 537.23 m/s
449.71 K, 597.88 kPa | 537.22 m/s and 537.21 m/s
449.71 K, 597.89 kPa | 537.22 m/s [middle of 5 runs]
449.72 K, 597.88 kPa | 537.2 m/s
449.72 K, 597.89 kPa | 537.21 m/s [middle of 4 runs]
449.73 K, 597.86 kPa | 537.19 m/s
449.73 K, 597.87 kPa | 537.2 m/s and 537.19 m/s and 537.19 m/s
449.74 K, 597.86 kPa | 537.19 m/s
449.74 K, 597.87 kPa | 537.2 m/s and 537.2 m/s
449.77 K, 597.88 kPa | 537.2 m/s and 537.2 m/s
449.78 K, 597.9 kPa | 537.2 m/s
449.79 K, 597.9 kPa | 537.2 m/s
479.91 K, 495.54 kPa | 552.38 m/s
479.92 K, 495.51 kPa | 552.4 m/s and 552.39 m/s
479.92 K, 495.52 kPa | 552.4 m/s
479.92 K, 495.54 kPa | 552.39 m/s
479.92 K, 495.55 kPa | 552.39 m/s
479.92 K, 495.57 kPa | 552.38 m/s and 552.39 m/s
479.92 K, 539.8 kPa | 552.38 m/s and 552.39 m/s
479.92 K, 539.81 kPa | 552.39 m/s
